Measurements taken from US20060115426A1, “Methods of detecting breast cancer, brain cancer, and pancreatic cancer” (priority 2004, published 2006).
“Also recorded” adds a separate entry of the source.

Legend:
C6 gliomas [1] = assay: Biodistribution (tissue distribution) of 125I-NM404 in glioma-bearing rats; assay type: in vivo, rat; conditions: for Tumor/brain ratio: based on % injected dose/g; for tissue distribution, Thyroid: indicator of in vivo deiodination
Protocol: (§1) Glioma tumor model: All animals were housed and handled in accordance with the University of Wisconsin Research Animal Resources Center guidelines. Rat C6 glioma cells were propagated in DMEM medium (Life Technologies, Gaithersburg, Md.) supplemented with 10% heat-inactivated FBS (BioWhittaker, Walkersville, MD), 100 U/ml penicillin-G, 100 μg/ml streptomycin, and 0.01 M hepes (Life Technologies, Gaithersburg, Md.). Intracranial tumor implantation was performed as described in Badie B, et al. J. Neuroimmunol. 133:39-45, 2002. Briefly, 1×10^6 C6 cells were resuspended in 5 μl of 1.2% methylcellulose and injected into the frontal lobes of anesthetized female Wistar rats (Harlan, Indianapolis, Ind.). Sham-operated animals received intracranial injections of an equal volume of methylcellulose without tumor cells.
Biodistribution studies: Rats bearing C6 gliomas (n=4, 10 day old tumors), and sham-operated rats (n=3) were injected with ^125I-NM404 (15 μCi/200 g rat) and biodistribution studies performed as described in Rampy M A, et al. J. Med. Chem. 38:3156-3162, 1995. Accordingly, animals were euthanized by exsanguination at 24, 48, and 96 hours following injection. A total of 17 tissues including blood, plasma, adrenal glands, bladder wall, bone marrow, brain, eye lens, fat, heart, kidney, liver, lung, muscle, spleen, skin, thyroid, and tumor were excised, rinsed, and dissected free of extraneous tissue. Tissues were minced and duplicate samples weighed and placed in plastic tubes for isotope counting in a gamma counter (Perkin Elmer/Wallac Wizard-1470). Injection site and residual carcass radioactivity were determined in a well counter (Capintec CRC-15R). Time normalized tissue distribution tables were generated by a custom computer program which produces decay-corrected tissue radioactivity concentration data on a percent injected dose/g, […], and percent injected dose/organ±SEM basis.

[2] = test system: CNS-1 brain tumor xenografts; assay: MicroPET evaluation of 124I-NM404 in rat CNS-1 brain tumor model; assay type: in vivo; conditions: CNS-1 rats
Protocol: NM404 was radiolabeled with ^124I in excellent radiochemical yield (>60% isolated yield, >99% purity) via isotope exchange reaction of stable NM404 with sodium-iodide (Eastern Isotopes, Sterling Va.). Following preparative HPLC purification ^124I-NM404 was solubilized in 2% Tween-20 and filtered (0.22 micron). NM404 (130-200 μCi in 0.1 ml) was injected (i.v., tail vein) into 6 rats with CNS-1 brain tumor xenografts. MicroPET images (Concorde Microsystems-P4, 30 min acquisition) were acquired immediately after and at 6 h, 24 h, and 96 h post injection. Contrast-enhanced MRI images were obtained immediately following the final PET scan and PET/MRI images were manually fused using Amira (V3.1, TGS, Inc). Rats were euthanized and brain tissue subjected to histopathologic analysis.

C6 gliomas [3] = assay: Bioscan imaging of excised brains of C6 glioma-bearing and sham-operated rats; assay type: in vivo, rat
Protocol: as §1
Imaging studies: Ten days after implantation rats were screened for the presence of intracranial tumors with MRI as described in Badie B, et al. Clin. Cancer Res. 9:872-877, 2003. […]
NM404 (100 μg) was radioiodinated with ^125I via isotope exchange in a melt of pivalic acid (Weichert J P, et al. Int J Appl Rad Isotopes 37:907-913,1986). […] Co-registered Bioscan images and digital photographs were fused (Corel Photo-Paint) in order to accurately determine the location of radioactivity. […]

viable tumor cells = assay: Autoradiography experiments in other tumor models; assay type: in vivo; conditions: versus normal or necrotic tissues
[4] = test system: spontaneous mammary carcinomas; assay: Bioscan imaging of 125I-NM404 in Apc Min/+ endogenous mammary adenocarcinoma model; assay type: in vivo, mouse
Text: Apc^Min/+ Mouse Model: This model is comprised of mice carrying the Min allele of Apc (Apc^Min/+ mice) and the type of lesions that appear in these mice are molecularly and histologically similar to breast cancer in humans. This model offers specific advantages over xenograft models in that female Apc^Min/+ mice are predisposed to developing mammary hyperplasias and carcinomas and intestinal adenomas. On the C57BL6/J genetic background, about 5% of untreated females will develop a mammary tumor by 100 days of age (Moser A R, et al. Proc. Natl. Acad. Sci. USA 90:8977-81, 1993). The incidence and multiplicity of the mammary lesions can be increased by a single dose of ethylnitrosourea (ENU), a direct acting alkylating agent. Treatment with ENU results in 90% of B6 Apc^Min/+ females developing an average of 3 mammary squamous cell carcinomas (SCC), but few hyperplasic lesions within 60 days after treatment.
Genetic background can affect the incidence, latency, and type of mammary lesions that develop. For example, FVBxB6 Apc^Min/+ female mice develop an average of 0.2 mammary tumors per mouse, but 4 hyperplasias per mouse within 120 days of treatment. BALB/xB6 Apc^Min/+ develop an average of 1.8 mammary tumors and 0.6 hyperplasias per mouse (Moser A R, et al. Cancer Research 61:3480-3485, 2001). FVBxB6 and BALBxB6 Apc^Min/+ mice develop both mammary SCC and adenocarcinomas (AC).
Imaging Studies: NM404 (100 μg) was radioiodinated with ^125I via isotope exchange in a melt of privalic acid. Following HPLC purification it was dissolved in an aqueous 2% tween-20 solution prior to tail vein injection (15 μCi/20 g mouse) into 6 female Apc^Min/+ mice. Mice were anesthetized and scanned for up to 30 days post injection on a modified Bioscan AR2000 radio-TLC scanner (1 mm increments at 2 mm acquisition/lane and 1 mm high-resolution collimator) and also in an ImTek microCT scanner (390 steps) for anatomic comparison. […] At sacrifice, mammary glands or excised tumors were imaged ex vivo, lesions were excised, weighed, and radioactivity quantitated. Lesion samples were submitted for histological classification. If necessary a long-acting CT blood pool contrast agent (BP20), as described in Weichert J P, et al. Radiology 216:865-871, 2000 and suitable for long microCT acquisitions times, was injected intravenously prior to CT scanning in order to assist in blood vessel visualization (FIG. 3).

[5] = test system: pancreatic adenocarcinomas; assay: Bioscan imaging of 125I-NM404 in c-myc spontaneous pancreatic adenocarcinoma model; assay type: in vivo, mouse; conditions: c-myc transgenic mice, adenocarcinomas 5-12 mm in diameter
Text: Mouse Pancreatic Adenocarcinoma Models: Two murine strains that are transgenic for either c-myc or k-ras, well-known oncogenes, have been developed at the University of Wisconsin (Sandgren E P, et al. Proc. Natl. Acad. Sci. USA 88:93-97, 1991 and Grippo P J, et al. Cancer Research 63:2016-2019, 2003). Expression of c-myc is targeted to pancreatic acinar cells because it is linked to an elastase promoter, which is only expressed in the pancreas. These ela-1-myc transgenic mice develop acinar and ductal neoplasia, which results in death between 2 and 7 months of age. By one month of age, the pancreas appears thickened and firm. Thus mice between the ages of 1-3 months serve as excellent models for the study of pancreatic cancer. Most human pancreatic neoplasms have a ductal morphology, and Dr. Sandgren's transgene targeting strategies are aimed at developing tumors that are specific for pancreatic ductal epithelium.
Imaging Studies: In order to determine if NM404 localizes in mouse pancreatic tumors, six c-myc transgenic mice were scanned on a Bioscan AR-2000 radioTLC scanner (modified by inventors for mouse imaging) from 2-21 days after tail vein injection of ^[…] (15 μCi/20 g body weight). […] At sacrifice, tissues were excised, weighed, and radioactivity quantitated in a gamma counter.

[6] = Apc Min/+ mice, Bioscan imaging

C[N+](C)(C)CCOP(=O)([O-])OCCCCCCCCCCCCCCCCCCc1ccc([125I])cc1 [^125I-NM404]
tissue distribution, Blood (C6 gliomas [1]; 24 h, N = 1): 1.83 % injected dose/g tissue | tissue distribution, Brain (C6 gliomas [1]; 24 h, N = 1): 0.07 % injected dose/g tissue | tissue distribution, Glioma (C6 gliomas [1]; 24 h, N = 1): 0.74 % injected dose/g tissue | tissue distribution, Kidney (C6 gliomas [1]; 24 h, N = 1): 0.91 % injected dose/g tissue | tissue distribution, Liver (C6 gliomas [1]; 24 h, N = 1): 0.77 % injected dose/g tissue | tissue distribution, Spleen (C6 gliomas [1]; 24 h, N = 1): 0.80 % injected dose/g tissue | Tumor/brain ratio (C6 gliomas [1]; 24 h): 10.6 | tissue distribution, Blood (C6 gliomas [1]; 48 h, N = 1): 1.16 % injected dose/g tissue | tissue distribution, Brain (C6 gliomas [1]; 48 h, N = 1): 0.05 % injected dose/g tissue | tissue distribution, Glioma (C6 gliomas [1]; 48 h, N = 1): 0.60 % injected dose/g tissue | tissue distribution, Kidney (C6 gliomas [1]; 48 h, N = 1): 0.44 % injected dose/g tissue | tissue distribution, Liver (C6 gliomas [1]; 48 h, N = 1): 0.30 % injected dose/g tissue | tissue distribution, Spleen (C6 gliomas [1]; 48 h, N = 1): 0.33 % injected dose/g tissue | tissue distribution, Thyroid (C6 gliomas [1]; 48 h, N = 1): 2.34 % injected dose/g tissue | Tumor/brain ratio (C6 gliomas [1]; 48 h): 12.0 | tissue distribution, Blood (C6 gliomas [1]; 96 h, N = 2, ± SEM): 0.82 ± 0.01 % injected dose/g tissue | tissue distribution, Brain (C6 gliomas [1]; 96 h, N = 2, ± SEM): 0.09 ± 0.02 % injected dose/g tissue | tissue distribution, Glioma (C6 gliomas [1]; 96 h, N = 2, ± SEM): 0.70 ± 0.04 % injected dose/g tissue | tissue distribution, Kidney (C6 gliomas [1]; 96 h, N = 2, ± SEM): 0.45 ± 0.05 % injected dose/g tissue | tissue distribution, Liver (C6 gliomas [1]; 96 h, N = 2, ± SEM): 0.39 ± 0.01 % injected dose/g tissue | tissue distribution, Spleen (C6 gliomas [1]; 96 h, N = 2, ± SEM): 0.33 ± 0.03 % injected dose/g tissue | tissue distribution, Thyroid (C6 gliomas [1]; 96 h, N = 2, ± SEM): 9.06 ± 3.84 % injected dose/g tissue | Tumor/brain ratio (C6 gliomas [1]; 96 h): 7.8

C[N+](C)(C)CCOP(=O)([O-])OCCCCCCCCCCCCCCCCCCc1ccc([124I])cc1 [^124 I-NM404]
tumor uptake (microPET) ([2]; 6 hours following injection): respectable tumor uptake | concomitant normal brain tissue activity (microPET) ([2]; any time point): Little to no | tumor conspicuity (microPET) ([2]; at either 24 or 96 hours): significant | tumor uptake (microPET) ([2]; within 30 minutes of i.v. injection): no tumor uptake

C[N+](C)(C)CCOP(=O)([O-])OCCCCCCCCCCCCCCCCCCc1ccc(I)cc1 [NM404, 18-(p-iodophenyl)-octadecylphosphocholine]
Tumor/brain ratio (C6 gliomas [1]; 24 h): 10.6 | tissue distribution, Thyroid (C6 gliomas [1]; 48 h, N = 1): 2.3 % injected dose/g tissue | Tumor/brain ratio (C6 gliomas [1]; 48 h): 12.0 | tissue distribution, Thyroid (C6 gliomas [1]; 96 h, N = 2, ± SEM): 9.0 % injected dose/g tissue | Tumor/brain ratio (C6 gliomas [1]; 96 h): 7.8 | tracer uptake in C6 gliomas on Bioscan images (C6 gliomas [3]; C6 glioma-bearing rats, 24-96 h after i.v. 125I-NM404 15 μCi/200 g): intense localization; also recorded: concentrated intensely | radioactivity in normal brain tissue (C6 gliomas [3]; sham operated control rats): minimal | cells/tissues capable of accumulating NM404 (autoradiography) (viable tumor cells): only viable tumor cells | HPLC analysis of radioactive urine and feces ([4]; Apc Min/+ mice after i.v. 125I-NM404): presence of metabolites and no parent NM404 | localization in focal alveolar (mammary) hyperplasias [4, 6]: no corresponding focal activity; also recorded: did not localize | localization in intestinal adenomatous polyps [4, 6]: no uptake; also recorded: did not localize | uptake in spontaneous mammary carcinomas ([4]; Apc Min/+ mice, i.v. 125I-NM404 15 μCi/20 g, carcinomas 2-15 mm in diameter): > 20 % dose/g | tumor retention ([4]; Apc Min/+ mice, mammary carcinomas, 21 days = predetermined study endpoint): > 21 days | retention in pancreatic adenocarcinomas [5]: > 21 days | uptake in pancreatic adenocarcinomas ([5]; i.v. 15 μCi/20 g): striking uptake
